Measurements published in ChEMBL document CHEMBL6127081, “Peptide inhibitors targeting Ras and Ras-associated protein-protein interactions” (Eur J Med Chem, 2024).
Each block holds one molecule with its values, some of them ahead of it. Where a SMILES comes first, the peptide text is derived from it. Bridges are numbered along the chain shown (N, C = ends). [ ]: non-standard residue; d: D form. hArg = N=C(N)NCCCC[C@H](N)C(=O)O; S5 = C=CCCC[C@](C)(N)C(=O)O

Assays:
[1] = molecular target: T1, GTPase KRas (Homo sapiens, UniProt P01116); test: Inhibition of recombinant wild-type KRas (unknown origin) by fluorescence polarization assay
T1 sequence (P01116 whole entry): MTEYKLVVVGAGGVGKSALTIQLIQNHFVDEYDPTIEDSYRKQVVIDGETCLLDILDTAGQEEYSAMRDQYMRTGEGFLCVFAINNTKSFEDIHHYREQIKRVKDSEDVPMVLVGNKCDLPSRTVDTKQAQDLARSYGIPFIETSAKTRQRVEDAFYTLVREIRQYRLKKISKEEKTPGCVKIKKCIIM

[2] = molecular target: GTPase KRas (Homo sapiens, UniProt P01116, G12D); test: Inhibition of KRas G12D mutant (unknown origin) by fluorescence polarization assay
GTPase KRas (Homo sapiens, UniProt P01116, G12D), sequence (P01116 whole entry G12D): as the sequence (P01116 whole entry) above, with G12D counted along it

[3] = molecular target: T2, GTPase KRas (Homo sapiens, UniProt P01116, G12V); test: Inhibition of KRas G12V mutant (unknown origin) by fluorescence polarization assay
T2 sequence (P01116 whole entry G12V): as the sequence (P01116 whole entry) above, with G12V counted along it

[4] = molecular target: T3, GTPase KRas (Homo sapiens, UniProt P01116, G12C); test: Inhibition of KRas G12C mutant (unknown origin) by fluorescence polarization assay
T3 sequence (P01116 whole entry G12C): as the sequence (P01116 whole entry) above, with G12C counted along it

[5] = molecular target: GTPase KRas (Homo sapiens, UniProt P01116, G12S); test: Inhibition of KRas G12S mutant (unknown origin) by fluorescence polarization assay
GTPase KRas (Homo sapiens, UniProt P01116, G12S), sequence (P01116 whole entry G12S): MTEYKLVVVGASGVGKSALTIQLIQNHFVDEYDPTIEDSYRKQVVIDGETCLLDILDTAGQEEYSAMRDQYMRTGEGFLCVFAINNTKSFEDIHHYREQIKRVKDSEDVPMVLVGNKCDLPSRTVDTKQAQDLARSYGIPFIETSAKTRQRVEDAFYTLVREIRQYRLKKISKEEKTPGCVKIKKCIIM

[6] = Inhibition of KRas Q61H mutant (unknown origin) by fluorescence polarization assay; set-up: species or system Homo sapiens
[7] = molecular target: T1, GTPase KRas; test: Binding affinity to KRas (unknown origin) assessed as apparent dissociation constant by fluorescence anisotropy analysis; conditions: read-out: Kd(app)
[8] = molecular target: T2, GTPase KRas; test: Binding affinity to KRas G12V mutant (unknown origin) assessed as apparent dissociation constant by fluorescence anisotropy analysis; conditions: read-out: Kd(app)
[9] = molecular target: GTPase KRas/RAF1 (Homo sapiens, UniProt P01116); test: Inhibition of KRAS/RAF interaction (unknown origin); format: protein assay
GTPase KRas/RAF1, sequence (P04049 whole entry): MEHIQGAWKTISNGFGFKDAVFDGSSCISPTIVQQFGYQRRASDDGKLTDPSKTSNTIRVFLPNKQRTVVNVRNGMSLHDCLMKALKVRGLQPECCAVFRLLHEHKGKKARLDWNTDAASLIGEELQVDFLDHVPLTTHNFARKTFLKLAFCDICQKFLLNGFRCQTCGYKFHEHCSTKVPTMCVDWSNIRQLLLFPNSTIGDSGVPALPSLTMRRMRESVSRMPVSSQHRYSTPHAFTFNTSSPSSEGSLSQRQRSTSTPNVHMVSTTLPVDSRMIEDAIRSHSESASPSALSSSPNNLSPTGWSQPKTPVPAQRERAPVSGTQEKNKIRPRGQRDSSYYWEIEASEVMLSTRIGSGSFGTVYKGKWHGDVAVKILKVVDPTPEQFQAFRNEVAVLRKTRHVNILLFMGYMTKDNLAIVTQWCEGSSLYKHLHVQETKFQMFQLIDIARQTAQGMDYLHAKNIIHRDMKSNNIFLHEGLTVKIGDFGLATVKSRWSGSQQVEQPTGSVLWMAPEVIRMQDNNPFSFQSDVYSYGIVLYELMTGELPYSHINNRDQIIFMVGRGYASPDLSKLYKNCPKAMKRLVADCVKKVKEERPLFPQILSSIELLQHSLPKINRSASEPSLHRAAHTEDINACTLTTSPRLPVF
GTPase KRas/RAF1, sequence (P01116 whole entry): as the sequence (P01116 whole entry) above

[10] = molecular target: Epidermal growth factor receptor (Homo sapiens) (UniProt P00533); test: Inhibition of EGFR in human NCI-H1299 cells assessed as inhibition in Akt phosphorylation relative to control; format: cell-based; conditions: concentration not given here
Epidermal growth factor receptor (Homo sapiens), sequence (P00533 whole entry): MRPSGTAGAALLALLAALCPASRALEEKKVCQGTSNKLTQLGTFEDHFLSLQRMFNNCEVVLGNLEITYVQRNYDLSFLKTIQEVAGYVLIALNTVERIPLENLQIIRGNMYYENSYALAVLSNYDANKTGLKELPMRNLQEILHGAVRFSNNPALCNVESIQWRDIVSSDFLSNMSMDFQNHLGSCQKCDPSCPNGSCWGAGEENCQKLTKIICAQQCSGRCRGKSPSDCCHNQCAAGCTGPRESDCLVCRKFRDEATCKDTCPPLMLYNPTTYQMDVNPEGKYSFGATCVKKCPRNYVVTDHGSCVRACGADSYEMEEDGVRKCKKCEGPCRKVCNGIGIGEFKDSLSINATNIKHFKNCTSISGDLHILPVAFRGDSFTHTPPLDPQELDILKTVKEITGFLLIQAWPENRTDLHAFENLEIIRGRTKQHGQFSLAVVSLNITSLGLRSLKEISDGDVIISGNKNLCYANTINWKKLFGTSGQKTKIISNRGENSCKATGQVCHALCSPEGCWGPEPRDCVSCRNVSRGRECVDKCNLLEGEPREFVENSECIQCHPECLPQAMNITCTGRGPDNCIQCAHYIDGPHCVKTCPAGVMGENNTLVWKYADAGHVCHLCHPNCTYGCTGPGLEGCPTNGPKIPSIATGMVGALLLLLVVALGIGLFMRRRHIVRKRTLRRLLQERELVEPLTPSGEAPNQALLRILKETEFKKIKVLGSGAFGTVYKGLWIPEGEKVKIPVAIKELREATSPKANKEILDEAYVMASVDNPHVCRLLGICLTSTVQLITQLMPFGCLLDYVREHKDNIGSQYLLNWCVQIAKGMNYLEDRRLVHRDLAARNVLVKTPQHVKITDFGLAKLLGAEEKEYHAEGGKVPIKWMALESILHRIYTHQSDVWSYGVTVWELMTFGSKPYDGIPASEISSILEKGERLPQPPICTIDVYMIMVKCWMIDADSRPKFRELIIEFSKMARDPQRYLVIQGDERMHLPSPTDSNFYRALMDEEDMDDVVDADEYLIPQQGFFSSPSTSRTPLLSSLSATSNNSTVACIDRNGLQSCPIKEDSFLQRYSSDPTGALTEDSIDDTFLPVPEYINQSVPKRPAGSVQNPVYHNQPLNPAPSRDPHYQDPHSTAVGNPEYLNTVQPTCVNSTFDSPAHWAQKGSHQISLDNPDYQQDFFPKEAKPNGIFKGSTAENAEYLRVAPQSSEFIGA

[11] = molecular target: Epidermal growth factor receptor (Homo sapiens) (UniProt P00533); test: Inhibition of EGFR in human NCI-H1299 cells assessed as inhibition in MEK phosphorylation relative to control; format: cell-based; conditions: concentration not given here
[12] = Binding affinity to GDP bound RAF (unknown origin) assessed as dissociation constant; set-up: species or system Homo sapiens
[13] = molecular target: SOS1-KRAS (Homo sapiens, UniProt P01116, G12D); test: Inhibition of KRAS G12D mutant/SOS1 (unknown origin) interaction by TR-FRET assay; format: protein-complex assay
SOS1-KRAS, sequence (P01116 whole entry G12D, looked up): as the sequence (P01116 whole entry) above, with G12D counted along it

[14] = molecular target: T1, GTPase KRas; test: Binding affinity to KRas (unknown origin) assessed as dissociation constant
[15] = molecular target: T4, GTPase HRas (Homo sapiens, UniProt P01112); test: Binding affinity to HRas (unknown origin) assessed as dissociation constant
T4 sequence (P01112 whole entry): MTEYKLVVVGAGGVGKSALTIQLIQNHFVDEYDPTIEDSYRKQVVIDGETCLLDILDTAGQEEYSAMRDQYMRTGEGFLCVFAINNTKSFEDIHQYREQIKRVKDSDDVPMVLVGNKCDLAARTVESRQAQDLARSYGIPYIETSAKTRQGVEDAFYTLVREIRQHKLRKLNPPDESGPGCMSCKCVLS

[16] = molecular target: T4, GTPase HRas; test: Binding affinity to wild-type H-Ras (unknown origin) assessed as dissociation constant by fluorescence polarization assay
[17] = molecular target: T3, GTPase KRas; test: Binding affinity to KRas G12C mutant (unknown origin) assessed as dissociation constant by biolayer interferometry assay
[18] = system: NCI-H358; test: Cytotoxicity against human NCI-H358 cells measured after 24 hrs by CCK-8 method; format: functional, cell-based; conditions: NCI-H358, 24 h
[19] = system: NCI-H358; test: Cytotoxicity against human NCI-H358 cells measured after 36 hrs by CCK-8 method; format: functional, cell-based; conditions: NCI-H358, 36 h
[20] = system: NCI-H358; test: Cytotoxicity against human NCI-H358 cells measured after 48 hrs by CCK-8 method; format: functional, cell-based; conditions: NCI-H358, 48 h
[21] = system: NCI-H358; test: Cytotoxicity against human NCI-H358 cells measured after 72 hrs by CCK-8 method; format: functional, cell-based; conditions: NCI-H358, 72 h

Structure (SMILES): CC[C@H](C)[C@@H]1NC(=O)[C@H](Cc2cn(CCc3c(C)[nH]c4cc(Cl)cc(Cl)c34)nn2)NC(=O)[C@H](CC(N)=O)NC(=O)[C@H](CCCNC(=N)N)NC(=O)[C@H](Cc2ccccc2)NC(=O)[C@H](CC(C)C)NC(=O)[C@H](C)NC(=O)c2cc3cc(c2)C(=O)NC[C@@H](C(N)=O)NC(=O)[C@H](CCCNC(=N)N)NC(=O)[C@H](CCCNC(=N)N)NC(=O)[C@H](CCCNC(=N)N)NC(=O)[C@H](CCCNC(=N)N)NC(=O)[C@H](Cc2ccc4ccccc4c2)NC(=O)[C@H](Cc2ccccc2)NC(=O)[C@H](CCCCNC3=O)NC1=O
Kd [7]: 0.21 µM
Kd [8]: 17 µM
IC50 [9]: 3.4 µM
inhibition [10]: 60%
inhibition [11]: 50%
Kd [12]: 0.37 µM

Structure (SMILES): C=CS(=O)(=O)NCCCC(=O)NCCCC[C@H](NC(=O)[C@H](CC(C)C)NC(=O)C[C@@H](CC(=O)O)NC(=O)[C@H](CC(C)C)NC(=O)[C@H](CCCNC(=N)N)NC(=O)[C@H](Cc1ccc(O)cc1)NC(=O)CC(C)(CC)NC(=O)CN1C/C=C\CCCC(=O)N[C@@H](Cc2ccccc2)C(=O)N[C@@H](CCC(=O)O)C1=O)C(=O)N[C@@H](CCCCN)C(=O)NCCC(=O)N[C@@H](CCC(=O)O)C(=O)N[C@@H](CCC(=O)O)C(=O)N[C@@H](C)C(=O)N[C@@H](CC(N)=O)C(N)=O (stereo partly specified)
Kd [16]: 4.1 µM

Structure (SMILES): CC[C@H](C)[C@H](NC(=O)CNC(=O)[C@H](Cc1ccccc1)NC(C)=O)C(=O)N[C@@]1(C)CCC/C=C\CCC[C@@](C)(C(=O)N[C@@H](CC(C)C)C(=O)N[C@@H](CCCCN)C(=O)N[C@H](C(N)=O)[C@@H](C)O)NC(=O)[C@H](CC(N)=O)NC(=O)[C@H]([C@@H](C)O)NC(=O)[C@H](CC(C)C)NC1=O (Ac-FGI[S5]LTN[S5]LKT-NH2; staple (Z) 4-8)
Kd [17]: 7.67 µM
IC50 [18]: 15.7 µM
IC50 [19]: 7.55 µM
IC50 [20]: 5.75 µM
IC50 [21]: 6.68 µM

Other lines, results leading:

IC50 [1]: 5 µM
IC50 [2]: 5 µM
IC50 [3]: 5 µM
IC50 [4]: 5 µM
IC50 [5]: 5 µM
IC50 [6]: 5 µM
Structure (SMILES): CC[C@H](C)[C@H](NC(=O)CNC(=O)[C@H](Cc1ccccc1)NC(=O)[C@H](Cc1ccccc1)NC(=O)[C@H](CCCNC(=N)N)NC(=O)[C@H](CCCNC(=N)N)NC(C)=O)C(=O)N[C@@]1(C)CCC/C=C\CCC[C@@](C)(C(=O)N[C@@H](CC(C)C)C(=O)N[C@@H](CCCCN)C(=O)N[C@H](C(=O)N[C@@H](CCC(=O)O)C(=O)N[C@@H](CCC(=O)O)C(=O)NCC(=O)N[C@@H](CC(N)=O)C(N)=O)[C@@H](C)O)NC(=O)[C@H](CC(N)=O)NC(=O)[C@H]([C@@H](C)O)NC(=O)[C@H](CC(C)C)NC1=O

IC50 [13]: 0.016 µM
Kd [14]: 3.92 µM
Kd [15]: 3.92 µM
Structure (SMILES): CC[C@H](C)[C@H](NC(=O)[C@H](Cc1c[nH]c2ccccc12)NC(C)=O)C(=O)NCC(=O)N[C@@H](CCCNC(=N)N)C(=O)N[C@@H](CC(C)C)C(=O)N[C@@H](CC(C)C)C(=O)N[C@H](C(=O)N[C@@]1(C)CCC/C=C\CCC[C@@](C)(C(=O)N[C@@H](CCCNC(=N)N)C(=O)N[C@@H](CC(N)=O)C(=O)NCC(=O)N[C@@H](CC(N)=O)C(N)=O)NC(=O)[C@H](CC(C)C)NC(=O)[C@H](CCCCNC(=N)N)NC(=O)[C@H](CCCNC(=N)N)NC1=O)[C@@H](C)O (Ac-WIGRLLT[S5]R[hArg]L[S5]RNGN-NH2; staple (Z) 8-12)
